Measurements as given in patent publication US7598397B2, “Sulfonamide peri-substituted bicyclics for occlusive artery disease” (deCODE genetics ehf, priority 2004, dated 2009).

Molecular target: T1, prostanoid EP3 receptors (Homo sapiens, UniProt P43115)
T1 sequence (P43115 1-390): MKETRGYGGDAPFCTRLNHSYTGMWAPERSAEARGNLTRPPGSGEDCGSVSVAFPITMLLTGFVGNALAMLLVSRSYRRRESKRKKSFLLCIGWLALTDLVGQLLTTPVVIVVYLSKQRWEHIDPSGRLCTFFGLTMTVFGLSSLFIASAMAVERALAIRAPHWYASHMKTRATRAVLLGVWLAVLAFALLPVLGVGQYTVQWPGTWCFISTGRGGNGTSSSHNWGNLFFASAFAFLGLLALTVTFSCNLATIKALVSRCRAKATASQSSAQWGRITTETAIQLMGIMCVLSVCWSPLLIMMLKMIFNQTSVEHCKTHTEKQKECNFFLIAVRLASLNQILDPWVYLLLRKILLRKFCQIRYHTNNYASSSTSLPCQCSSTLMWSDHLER
Assay: binding on prostanoid EP3 receptors (method of Abramovitz et al.)
Conditions: read-out: Activity (EP3 receptor binding, IC50 class)
Experimental: The compounds of the invention were assayed for their binding on prostanoid EP3 receptors according to the method of Abramovitz et al. [Bioch. Biophys.

| SMILES | IC50 [nM] |
| --- | --- |
| O=C(Nc1cccc2c1N(Cc1ccc3ccccc3c1)C(=O)CO2)C(=O)NS(=O)(=O)c1cccs1 [Compound P019, N-(4-Naphthalen-2-ylmethyl-3-oxo-3,4-dihydro-2H-benzo[1,4]oxazin-5-yl)-2-oxo-2-(thiophen-2-sulfonylamino)-acetamide] | 1000 to 10000 |
| O=C(Cn1c(=O)ccc2cccc(OCc3ccc4ccccc4c3)c21)NS(=O)(=O)c1cccs1 [Compound P012] | > 10000 |
| O=C(COc1cccc2oc(=O)n(Cc3ccc(Cl)c(Cl)c3)c12)NS(=O)(=O)c1cccs1 [Compound P051] | < 1000 |
| O=C(COc1cccc2c1N(Cc1ccc(F)cc1)C(=O)CO2)NS(=O)(=O)c1cccs1 [Compound P024] | > 10000 |
| Cc1cn(Cc2ccccc2)c2c(/C=C/C(=O)NS(=O)(=O)c3cccs3)cccc12 [Compound P084] | < 1000 |
| O=C(C=Cc1cccc2c1N(Cc1ccc3ccccc3c1)C(=O)C2)NS(=O)(=O)c1cccs1 [Compound P217] | < 1000 |
| Cc1cn(CCC(=O)NS(=O)(=O)c2cc(Cl)c(Cl)s2)c2c(Oc3ccc(Cl)c(Cl)c3)cc(F)cc12 [Compound P388] | < 1000 |
| Cn1cc(C=CC(=O)NS(=O)(=O)c2ccc(Cl)cc2Cl)c2c(Oc3ccc4ccccc4c3)cccc21 [Compound P356] | < 1000 |
| O=C(COc1cccc2c1N(Cc1ccccc1C(F)(F)F)C(=O)CO2)NS(=O)(=O)c1cccs1 [Compound P031] | 1000 to 10000 |
| Cc1cn(Cc2ccc(Cl)cc2Cl)c2c(C=CC(=O)NS(=O)(=O)c3ccc(F)c(F)c3)cc(F)cc12 [Compound P335] | < 1000 |
| O=C(C=Cc1cccc2c1N(Cc1ccc3ccccc3c1)C(=O)C2=O)NS(=O)(=O)c1cc(Cl)c(Cl)s1 [Compound P115] | < 1000 |
| Cc1cn(Cc2ccc(F)c(F)c2)c2c(/C=C/C(=O)NS(=O)(=O)c3cc(Cl)c(Cl)s3)cccc12 [Compound P135] | < 1000 |
| CC12CCCC(C=CC(=O)NS(=O)(=O)c3ccc(F)c(F)c3)=C1N(Cc1ccc(F)cc1)C(=O)C2 (stereo not drawn) [Compound P294] | < 1000 |
| O=C(C=Cc1cccc2ccn(Cc3ccc4ccccc4c3)c12)NS(=O)(=O)C(F)(F)F [Compound P016] | < 1000 |
| CC12CCCC(C=CC(=O)NS(=O)(=O)c3cc(F)cc(F)c3)=C1N(Cc1ccc(F)cc1)C(=O)C2 (stereo not drawn) [Compound P295] | < 1000 |
| Cc1cn(Cc2cc(F)cc(F)c2)c2c(/C=C/C(=O)NS(=O)(=O)c3cc(Cl)c(Cl)s3)cccc12 [Compound P136] | < 1000 |
| O=C(CNc1cccc2c1N(Cc1ccc3ccccc3c1)C(=O)CO2)NS(=O)(=O)c1cccs1 [Compound P049, Thiophen-2-sulfonic acid[2-(4-naphthalen-2-ylmethyl-3-oxo-3,4-dihydro-2H-benzo[1,4]oxazin-5-ylamino)-acetyl]-amide] | 1000 to 10000 |

| SMILES | IC50 [nM] |
| --- | --- |
| CN1C(=O)C(Nc2ccc(Cl)cc2Cl)c2c(C=CC(=O)NS(=O)(=O)c3cc(Cl)c(Cl)s3)cccc21 (stereo not drawn) [Compound P252] | < 1000 |
| O=C(COc1cccc2[nH]cc(Sc3ccc4ccccc4c3)c12)NS(=O)(=O)c1ccccc1Cl [Compound P183] | < 1000 |
| Cc1cn(Cc2ccc(Cl)cc2Cl)c2c(CCC(=O)NS(=O)(=O)c3cc(Cl)c(Cl)s3)cccc12 [Compound P072] | < 1000 |
| O=Cc1cn(Cc2ccc(Cl)cc2Cl)c2c(C=CC(=O)NS(=O)(=O)c3cccs3)cccc12 [Compound P069] | < 1000 |
| Cn1cc(C=CC(=O)NS(=O)(=O)c2c(F)c(F)c(F)c(F)c2F)c2c(Oc3ccc4ccccc4c3)cccc21 [Compound P373] | < 1000 |
| Cc1ccc(CN2C(=O)COc3cccc(OCC(=O)NS(=O)(=O)c4cccs4)c32)cc1 [Compound P023] | 1000 to 10000 |
| O=C(C=Cc1cccc2c1N(Cc1ccc3ccccc3c1)C(=O)C2=O)NS(=O)(=O)c1cccs1 [Compound P096] | < 1000 |
| Cc1cn(Cc2ccc3ccccc3c2)c2c(/C=C/C(=O)NS(=O)(=O)c3cccs3)cccc12 [Compound P057] | < 1000 |
| Cc1cn(CC2CCOCC2)c2c(/C=C/C(=O)NS(=O)(=O)c3cc(Cl)c(Cl)s3)cccc12 [Compound P144] | < 1000 |
| COc1cc(Cn2cc(C)c3cc(F)cc(C=CC(=O)NS(=O)(=O)c4cc(F)c(F)cc4F)c32)cc(OC)c1 [Compound P375] | < 1000 |
| O=C(COc1cccc2c1N(Cc1ccc(OC(F)F)cc1)C(=O)CO2)NS(=O)(=O)c1cccs1 [Compound P026] | 1000 to 10000 |
| CC1(F)C(=O)N(Cc2ccc3ccccc3c2)c2c(C=CC(=O)NS(=O)(=O)c3cccs3)cccc21 (stereo not drawn) [Compound P160] | < 1000 |
| CC12CCCC(/C=C/C(=O)NS(=O)(=O)c3cc(Cl)c(Cl)s3)=C1N(Cc1ccc(F)c(F)c1)C(=O)C2 (stereo not drawn) [Compound P264] | < 1000 |
| Cn1cc(C=CC(=O)NS(=O)(=O)c2ccc(F)c(F)c2)c2c(Oc3ccc4ncccc4c3)cccc21 [Compound P376] | < 1000 |
| O=C(COc1cccc2c1N(Cc1ccccc1)C(=O)CO2)NS(=O)(=O)c1cccs1 [Compound P022] | 1000 to 10000 |
| CC12CCCC(C=CC(=O)NS(=O)(=O)c3cc(Cl)cc(Cl)c3)=C1N(Cc1ccc(Cl)cc1Cl)C(=O)C2 (stereo not drawn) [Compound P280] | < 1000 |

The next lines start with the values.

| IC50 [nM] | SMILES |
| --- | --- |
| < 1000 | Cc1ccc(Sc2c[nH]c3cccc(OCC(=O)NS(=O)(=O)c4cc(Cl)c(Cl)s4)c23)c(C)c1 [Compound P165] |
| < 1000 | O=C(COc1cccc2[nH]cc(Sc3ccc4ccccc4c3)c12)NS(=O)(=O)c1ccc(F)cc1 [Compound P225] |
| < 1000 | Cn1cc(C=CC(=O)NS(=O)(=O)c2cc(Cl)c(Cl)s2)c2c(Oc3ccc(F)c(F)c3)cccc21 [Compound P320] |
| < 1000 | CC1C(=O)N(Cc2ccc(Cl)cc2Cl)c2c(C=CC(=O)NS(=O)(=O)c3cccs3)cccc21 (stereo not drawn) [Compound P058] |
| < 1000 | CCOC(=O)C12CCCC(C=CC(=O)NS(=O)(=O)c3cc(F)c(F)cc3F)=C1N(Cc1ccc(Cl)cc1Cl)C(=O)C2 (stereo not drawn) [Compound P344] |
| < 1000 | Cn1cc(C=CC(=O)NS(=O)(=O)c2ccc(Cl)cc2)c2c(Oc3ccc4ccccc4c3)cccc21 [Compound P365] |
| < 1000 | O=C(C=Cc1cccc2ccn(Cc3ccc(Cl)cc3Cl)c12)NS(=O)(=O)c1cc(Cl)c(Cl)s1 [Compound P129] |
| < 1000 | CN1C(=O)C(Oc2ccc3ccccc3c2)c2c(/C=C/C(=O)NS(=O)(=O)c3cc(Cl)c(Cl)s3)cccc21 (stereo not drawn) [Compound P265, 4,5-dichloro-thiophene-2-sulfonic acid {(E)-3-[1-methyl-3-(naphthalen-2-yloxy)-2-oxo-2,3-dihydro-1H-indol-4-yl]-acryloyl}-amide] |
| < 1000 | O=C(C=Cc1cccc2c1N(Cc1ccc(Cl)cc1Cl)C(=O)C2(F)F)NS(=O)(=O)c1cccs1 [Compound P216] |
| < 1000 | CC1(F)C(=O)N(Cc2ccc3ccccc3c2)c2c(C=CC(=O)NS(=O)(=O)c3cc(Cl)c(Cl)s3)cccc21 (stereo not drawn) [Compound P161] |
| < 1000 | Cc1cn(Cc2cn3ccccc3n2)c2c(/C=C/C(=O)NS(=O)(=O)c3cccc(Cl)c3)cc(F)cc12 [Compound P400] |
| < 1000 | CN1C(=O)C(Nc2ccc(F)c(F)c2)c2c(C=CC(=O)NS(=O)(=O)c3cc(Cl)c(Cl)s3)cccc21 (stereo not drawn) [Compound P272] |
| < 1000 | Cn1cc(C=CC(=O)NS(=O)(=O)c2cc(Cl)c(Cl)s2)c2c(Oc3ccc(F)c(Cl)c3)cccc21 [Compound P330] |
| < 1000 | CC12CCCC(C=CC(=O)NS(=O)(=O)c3cc(Cl)c(Cl)s3)=C1N(Cc1ccc(F)cc1)C(=O)C2 (stereo not drawn) [Compound P263] |
| < 1000 | CC(=O)CC1(O)C(=O)N(Cc2ccc(Cl)cc2Cl)c2c(C=CC(=O)NS(=O)(=O)c3cc(Cl)c(Cl)s3)cccc21 (stereo not drawn) [Compound P128] |
| < 1000 | CC1C(=O)N(Cc2ccc3ccccc3c2)c2c(C=CC(=O)NS(=O)(=O)c3cc(Cl)c(Cl)s3)cccc21 (stereo not drawn) [Compound P112] |
| < 1000 | CC12CCCC(C=CC(=O)NS(=O)(=O)c3ccc(F)c(F)c3)=C1N(Cc1ccc(Cl)cc1Cl)C(=O)C2 (stereo not drawn) [Compound P283] |
| < 1000 | Cc1cn(Cc2ccc3ccccc3c2)c2c(CCC(=O)NS(=O)(=O)c3cc(Cl)c(Cl)s3)cccc12 [Compound P073] |
| < 1000 | Cn1cc(C=CC(=O)NS(=O)(=O)c2cc(Cl)c(Cl)s2)c2c(Oc3cccc(Cl)c3Cl)cccc21 [Compound P291] |
| < 1000 | Cn1cc(C=CC(=O)NS(=O)(=O)c2ccc(F)c(F)c2)c2c(Oc3ccc(Cl)cc3Cl)cccc21 [Compound P302] |
| < 1000 | Cc1cn(Cc2cn3ccccc3n2)c2c(C=CC(=O)NS(=O)(=O)c3cccc(F)c3)cc(F)cc12 [Compound P401] |
| < 1000 | Cc1ccc(C)c(Cn2ccc3cccc(C=CC(=O)NS(=O)(=O)c4cccs4)c32)c1 [Compound P008] |
| < 1000 | Cc1ccc(S(=O)(=O)c2c[nH]c3cccc(OCC(=O)NS(=O)(=O)c4cc(Cl)c(Cl)s4)c23)c(C)c1 [Compound P172] |
| < 1000 | O=C(COc1cccc2[nH]cc(Sc3ccc(Cl)cc3Cl)c12)NS(=O)(=O)c1cc(Cl)c(Cl)s1 [Compound P205] |
| < 1000 | Cn1cc(C=CC(=O)NS(=O)(=O)c2ccc(F)cc2F)c2c(Oc3ccc4ccccc4c3)cccc21 [Compound P358] |
| < 1000 | Cc1cn(Cc2cn3ccccc3n2)c2c(C=CC(=O)NS(=O)(=O)c3ccccc3F)cc(F)cc12 [Compound P409] |
| < 1000 | O=C(C=Cc1cccc2c1N(Cc1ccc(Cl)cc1Cl)C(=O)C2(O)C[N+](=O)[O-])NS(=O)(=O)c1cc(Cl)c(Cl)s1 (stereo not drawn) [Compound P134] |
